The values that follow come from ChEMBL document CHEMBL1201862, “PubChem BioAssay data set” (2004).

Molecules are shown by their SMILES. Calls of active or inactive are those of the source.

The AC50 is the concentration giving half of the maximal activity seen.

Test [1] concerns the target Beta-lactamase (Salmonella choleraesuis (strain SC-B67), UniProt Q5J463). The experiment in a line: Epi-absorbance-based counterscreen for selective VIM-2 inhibitors: dose response biochemical high throughput screening assay to identify inhibitors of TEM-1 serine-beta-lactamase. (In general: The purpose of a counterscreen is to sort out artefacts and off-target activity.)

The target in test [2] is T1, Beta-lactamase (Pseudomonas aeruginosa, UniProt Q79MP6). As to the kind of experiment: inhibition of IMP-1 beta-lactamase activity – biochemical, epi-absorbance, selectivity assay for VIM-2 inhibitor project, dose response (AID 1920).
Test [3] concerns the target T1, Beta-lactamase. The experiment in a line: […] counterscreen for selective VIM-2 inhibitors: dose response biochemical high throughput screening assay to identify inhibitors of IMP-1 metallo-beta-lactamase.
In test [4] the target is G-protein coupled receptor 55 (Homo sapiens, UniProt Q9Y2T6). As to the kind of experiment: inhibition of LPI-stimulated GPR55 beta-arrestin translocation – imaging, U2OS, beta-arrestin-GFP, LPI agonist, primary screen (AID 2013).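 Note: antagonist potency measured as reduced agonist-driven arrestin aggregation.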 Type of test: functional.
For test [5], the target named is T2, Carboxy-terminal domain RNA polymerase II polypeptide A small phosphatase 1 (Homo sapiens, UniProt Q9GZU7).
T2 sequence (Q9GZU7 whole entry): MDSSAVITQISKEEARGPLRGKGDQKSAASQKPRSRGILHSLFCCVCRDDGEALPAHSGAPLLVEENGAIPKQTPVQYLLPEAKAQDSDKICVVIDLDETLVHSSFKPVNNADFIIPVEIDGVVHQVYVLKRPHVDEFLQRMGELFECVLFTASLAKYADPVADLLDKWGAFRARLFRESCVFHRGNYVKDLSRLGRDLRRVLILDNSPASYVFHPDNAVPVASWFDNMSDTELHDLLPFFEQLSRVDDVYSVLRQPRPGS
The experiment in a line: CTDSP1 inhibitors, concentration-response, biochemical, absorbance readout, ultra-high-throughput screen actives (AID 540297). Type of test: functional.

Test [6] addresses DNA (cytosine-5)-methyltransferase 1 (Homo sapiens, UniProt P26358). As to the kind of experiment: inhibition of DNA methylation by DNMT1 – biochemical, fluorescent molecular beacon, confirmation (AID 602386). Type of test: functional.
Test [7] deals with 26S proteasome non-ATPase regulatory subunit 14 (Homo sapiens, UniProt O00487). The experiment in a line: inhibition of proteasome subunit RPN11 – biochemical, fluorescence polarization, uHTS hits, confirmation (AID 602368). Type of test: functional. In general terms: In fluorescence polarisation assays a small probe gives low polarisation when free and higher when bound to something large.

Test [8] addresses 72 kDa type IV collagenase (Homo sapiens, UniProt P08253). The experiment in a line: Dose Response validation of uHTS RPN11 inhibitor hits using a MMP-2 Fluorescence assay. Type of test: functional.
The target of the next test is Prothrombin (Bos taurus, UniProt P00735). The experiment in a line: thrombin protease inhibitors – biochemical, fluorescence polarization, uHTS hits, dose response (AID 602369). Type of test: functional.
For test [9], the target named is T3, Histone-lysine N-methyltransferase NSD2 (Homo sapiens, UniProt O96028).
T3 sequence (O96028 whole entry): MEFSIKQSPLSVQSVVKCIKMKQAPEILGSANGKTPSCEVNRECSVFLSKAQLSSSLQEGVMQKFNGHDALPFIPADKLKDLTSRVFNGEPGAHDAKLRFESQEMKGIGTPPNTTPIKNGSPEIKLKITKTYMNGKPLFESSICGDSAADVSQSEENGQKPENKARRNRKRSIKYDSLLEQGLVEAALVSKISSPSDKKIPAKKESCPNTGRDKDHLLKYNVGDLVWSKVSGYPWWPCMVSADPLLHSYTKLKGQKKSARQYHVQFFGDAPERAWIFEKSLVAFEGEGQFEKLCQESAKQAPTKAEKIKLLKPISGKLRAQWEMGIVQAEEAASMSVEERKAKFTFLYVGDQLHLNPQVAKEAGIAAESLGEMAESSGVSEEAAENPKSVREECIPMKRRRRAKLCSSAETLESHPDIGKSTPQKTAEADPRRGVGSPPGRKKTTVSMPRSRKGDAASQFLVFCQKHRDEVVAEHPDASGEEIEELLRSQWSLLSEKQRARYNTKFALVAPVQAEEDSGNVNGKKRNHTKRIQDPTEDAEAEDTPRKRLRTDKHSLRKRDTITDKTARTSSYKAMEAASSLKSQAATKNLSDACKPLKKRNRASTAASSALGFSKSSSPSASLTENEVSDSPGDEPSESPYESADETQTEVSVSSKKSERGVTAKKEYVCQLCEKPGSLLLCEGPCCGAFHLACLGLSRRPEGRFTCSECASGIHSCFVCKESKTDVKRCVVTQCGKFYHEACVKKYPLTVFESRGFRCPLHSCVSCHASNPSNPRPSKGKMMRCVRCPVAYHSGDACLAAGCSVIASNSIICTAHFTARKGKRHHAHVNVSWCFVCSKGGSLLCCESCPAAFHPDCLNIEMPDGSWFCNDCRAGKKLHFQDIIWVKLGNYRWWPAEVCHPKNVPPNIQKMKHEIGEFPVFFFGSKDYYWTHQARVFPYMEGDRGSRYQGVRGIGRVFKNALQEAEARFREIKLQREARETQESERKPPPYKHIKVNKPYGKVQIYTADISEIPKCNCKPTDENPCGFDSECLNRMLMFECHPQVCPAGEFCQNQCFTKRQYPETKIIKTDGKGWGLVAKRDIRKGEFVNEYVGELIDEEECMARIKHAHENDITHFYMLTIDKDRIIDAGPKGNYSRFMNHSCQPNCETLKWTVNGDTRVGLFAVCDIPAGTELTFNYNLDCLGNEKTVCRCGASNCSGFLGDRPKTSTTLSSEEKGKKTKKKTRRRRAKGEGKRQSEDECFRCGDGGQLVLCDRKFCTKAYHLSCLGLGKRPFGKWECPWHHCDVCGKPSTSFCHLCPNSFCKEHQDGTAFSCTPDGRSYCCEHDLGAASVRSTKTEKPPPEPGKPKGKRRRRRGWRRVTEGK
Type of test: biochemical.

Test [10] addresses Potassium voltage-gated channel subfamily KQT member 2 (Rattus norvegicus, UniProt O88943). As to the kind of experiment: blockers of KCNQ2 channel current – cell-based, automated electrophysiology, set II, rat KCNQ2, dose response (AID 588637). Type of test: functional.
The nature of test [11]: viability of PTEN-deleted HCT116 cells – cell-based, HCT116 PTEN knockout, dose response (AID 1047).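 Note: HCT116 colon tumor cells with PTEN knocked out; cells exposed to compound for 60 hours before readout; potency for loss of cell viability measured by luminescence.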 Type of test: functional.
The nature of test [12]: viability of HCT116 lacking mutant beta-catenin – cell-based, human colon tumor, dose response (AID 1045).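 Note: HCT116 colon tumor cells with beta catenin knocked out; cells exposed to compound for 60 hours.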 Type of test: functional.
Test [13] has as its target Tyrosine-protein phosphatase non-receptor type 11 (Homo sapiens, UniProt Q06124). As to the kind of experiment: PTPN11 enzyme inhibitors – biochemical, selectivity assay for STEP inhibitor project, dose response (AID 602367). Type of test: functional. The following applies: read-out: IC50_Mean.
Test [14] addresses Tyrosine-protein phosphatase non-receptor type 5 (Homo sapiens, UniProt P54829). The experiment in a line: PTPN5 enzyme inhibition – biochemical, fluorescence intensity, uHTS hits, confirmation (AID 602372). Type of test: functional. As to conditions: read-out: IC50_Mean.
Test [15] deals with Dual specificity protein phosphatase 3 (Homo sapiens, UniProt P51452). The experiment in a line: VHR phosphatase inhibition, dose response, selectivity assay for STEP inhibitor project, biochemical (AID 602374). The following applies: read-out: IC50_Mean. Type of test: functional.
The target of test [16] is T4, Tyrosine-protein phosphatase non-receptor type 22 (Homo sapiens, UniProt Q9Y2R2).
T4 sequence (Q9Y2R2 whole entry): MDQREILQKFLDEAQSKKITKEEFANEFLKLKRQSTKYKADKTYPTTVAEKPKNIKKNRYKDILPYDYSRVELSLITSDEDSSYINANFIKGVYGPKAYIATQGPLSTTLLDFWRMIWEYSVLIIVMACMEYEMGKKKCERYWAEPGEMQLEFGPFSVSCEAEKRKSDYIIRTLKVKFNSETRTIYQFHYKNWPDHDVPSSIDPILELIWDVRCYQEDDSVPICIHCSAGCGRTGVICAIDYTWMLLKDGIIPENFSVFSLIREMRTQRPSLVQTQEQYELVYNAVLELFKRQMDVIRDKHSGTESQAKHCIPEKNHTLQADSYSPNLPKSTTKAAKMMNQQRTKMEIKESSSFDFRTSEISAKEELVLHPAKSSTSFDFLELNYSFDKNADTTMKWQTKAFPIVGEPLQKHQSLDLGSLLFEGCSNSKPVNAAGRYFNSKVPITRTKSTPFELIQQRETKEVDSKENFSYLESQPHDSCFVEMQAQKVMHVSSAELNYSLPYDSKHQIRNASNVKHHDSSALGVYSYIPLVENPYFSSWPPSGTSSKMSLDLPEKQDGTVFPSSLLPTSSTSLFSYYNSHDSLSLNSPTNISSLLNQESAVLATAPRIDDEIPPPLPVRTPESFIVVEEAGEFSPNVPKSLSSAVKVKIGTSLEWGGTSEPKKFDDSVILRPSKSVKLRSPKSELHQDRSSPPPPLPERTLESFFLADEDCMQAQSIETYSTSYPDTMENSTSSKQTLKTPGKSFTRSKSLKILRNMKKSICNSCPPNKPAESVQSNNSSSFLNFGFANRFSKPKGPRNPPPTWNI
As to the kind of experiment: lymphoid phosphatase LYP inhibitors – biochemical, selectivity assay for STEP inhibitor project, dose response (AID 624241). Type of test: functional.

Test [17] addresses T5, Low molecular weight phosphotyrosine protein phosphatase (Homo sapiens, UniProt P24666).
T5 sequence (P24666 whole entry): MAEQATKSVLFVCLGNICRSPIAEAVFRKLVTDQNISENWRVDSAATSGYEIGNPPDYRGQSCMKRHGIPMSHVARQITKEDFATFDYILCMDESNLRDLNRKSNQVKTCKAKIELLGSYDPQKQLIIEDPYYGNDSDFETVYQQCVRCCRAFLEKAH
Type of test: functional. As to conditions: read-out: IC50_Mean.

The target in test [18] is T5, Low molecular weight phosphotyrosine protein phosphatase. Type of test: functional. The following applies: read-out: IC50_Mean. This is another data set of the same source.
For test [19], the target named is T6, ATP-dependent translocase ABCB1 (Homo sapiens, UniProt P08183). The experiment in a line: inhibition of BCRP-mediated JC-1 efflux – Ig-MXP3 cells, flow cytometry, set 2, dose response (AID 504566).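 Note: flow cytometry median green fluorescence of retained JC-1 dye; potency of efflux pump inhibition measured as rising substrate retention.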 Type of test: functional. As to conditions: read-out: EC50_MICROM_. (In general: A flow cytometer gives signals particle by particle.)
The target in test [20] is T6, ATP-dependent translocase ABCB1. The experiment in a line: P-gp JC-1 efflux blockade concentration-response – Jurkat-DNR cells, flow cytometry, set 2, dose response (AID 504569).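 Note: potency of pump inhibitors that raise cellular JC-1 green fluorescence up to the nicardipine level.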 Type of test: functional. As to conditions: read-out: EC50_MICROM_.

T6 sequence (P08183 whole entry): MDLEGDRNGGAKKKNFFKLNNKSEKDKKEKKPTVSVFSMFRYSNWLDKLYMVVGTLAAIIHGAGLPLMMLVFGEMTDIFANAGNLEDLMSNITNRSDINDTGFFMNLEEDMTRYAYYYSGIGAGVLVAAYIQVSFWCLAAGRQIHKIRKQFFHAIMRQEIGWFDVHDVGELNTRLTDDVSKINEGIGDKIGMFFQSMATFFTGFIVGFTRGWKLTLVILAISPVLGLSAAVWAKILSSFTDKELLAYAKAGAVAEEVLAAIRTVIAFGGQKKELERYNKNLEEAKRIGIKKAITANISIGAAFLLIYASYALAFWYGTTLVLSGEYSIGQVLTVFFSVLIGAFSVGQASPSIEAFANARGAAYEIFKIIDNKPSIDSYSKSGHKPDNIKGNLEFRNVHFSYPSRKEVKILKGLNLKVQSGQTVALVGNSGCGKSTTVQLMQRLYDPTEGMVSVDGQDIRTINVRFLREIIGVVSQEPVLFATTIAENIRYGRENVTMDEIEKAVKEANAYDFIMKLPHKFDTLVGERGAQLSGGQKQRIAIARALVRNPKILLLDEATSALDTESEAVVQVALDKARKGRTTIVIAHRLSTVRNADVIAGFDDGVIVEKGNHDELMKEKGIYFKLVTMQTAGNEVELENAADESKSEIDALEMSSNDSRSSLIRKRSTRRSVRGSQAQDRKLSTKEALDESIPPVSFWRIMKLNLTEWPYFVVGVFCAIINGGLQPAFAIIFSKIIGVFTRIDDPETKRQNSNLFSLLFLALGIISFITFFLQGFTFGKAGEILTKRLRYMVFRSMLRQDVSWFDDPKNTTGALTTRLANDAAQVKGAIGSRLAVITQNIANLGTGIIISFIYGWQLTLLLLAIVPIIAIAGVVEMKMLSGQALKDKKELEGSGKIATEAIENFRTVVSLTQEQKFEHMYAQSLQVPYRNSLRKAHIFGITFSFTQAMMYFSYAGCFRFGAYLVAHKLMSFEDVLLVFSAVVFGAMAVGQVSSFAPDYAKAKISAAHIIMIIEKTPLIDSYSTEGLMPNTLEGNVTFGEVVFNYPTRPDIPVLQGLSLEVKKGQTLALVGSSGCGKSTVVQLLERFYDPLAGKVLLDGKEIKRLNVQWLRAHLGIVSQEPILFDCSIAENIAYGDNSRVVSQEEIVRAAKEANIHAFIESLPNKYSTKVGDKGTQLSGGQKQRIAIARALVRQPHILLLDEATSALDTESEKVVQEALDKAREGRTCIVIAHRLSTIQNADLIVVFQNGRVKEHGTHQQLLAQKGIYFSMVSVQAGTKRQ
T1 sequence (Q79MP6 whole entry): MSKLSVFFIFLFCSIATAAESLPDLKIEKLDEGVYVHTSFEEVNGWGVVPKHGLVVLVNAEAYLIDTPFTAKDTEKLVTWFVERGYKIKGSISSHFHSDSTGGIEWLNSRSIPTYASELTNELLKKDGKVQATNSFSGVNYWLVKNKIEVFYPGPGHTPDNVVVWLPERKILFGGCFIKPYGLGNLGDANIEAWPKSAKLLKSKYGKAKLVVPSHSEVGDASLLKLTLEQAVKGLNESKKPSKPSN
Chain of G-protein coupled receptor 55 (Q9Y2T6 whole entry, the tested form may be a part): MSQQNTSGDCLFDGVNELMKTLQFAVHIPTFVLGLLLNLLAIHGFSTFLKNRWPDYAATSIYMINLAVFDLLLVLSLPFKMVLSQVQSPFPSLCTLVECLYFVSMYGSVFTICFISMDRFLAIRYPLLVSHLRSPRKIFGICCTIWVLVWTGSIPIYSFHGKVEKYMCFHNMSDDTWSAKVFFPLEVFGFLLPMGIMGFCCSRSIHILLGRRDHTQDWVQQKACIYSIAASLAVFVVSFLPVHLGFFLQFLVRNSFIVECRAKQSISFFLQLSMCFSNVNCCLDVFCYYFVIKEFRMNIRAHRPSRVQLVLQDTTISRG
Chain of Beta-lactamase (Salmonella choleraesuis (strain SC-B67), UniProt Q5J463) (Q5J463 whole entry): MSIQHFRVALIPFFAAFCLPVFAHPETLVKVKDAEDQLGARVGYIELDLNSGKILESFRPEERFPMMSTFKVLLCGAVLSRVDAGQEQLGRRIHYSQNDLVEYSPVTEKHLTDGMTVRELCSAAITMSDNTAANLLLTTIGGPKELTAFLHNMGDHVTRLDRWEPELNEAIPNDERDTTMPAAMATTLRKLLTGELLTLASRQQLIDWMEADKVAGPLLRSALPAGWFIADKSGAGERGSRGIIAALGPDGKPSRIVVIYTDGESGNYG
Chain of Tyrosine-protein phosphatase non-receptor type 11 (Q06124 whole entry): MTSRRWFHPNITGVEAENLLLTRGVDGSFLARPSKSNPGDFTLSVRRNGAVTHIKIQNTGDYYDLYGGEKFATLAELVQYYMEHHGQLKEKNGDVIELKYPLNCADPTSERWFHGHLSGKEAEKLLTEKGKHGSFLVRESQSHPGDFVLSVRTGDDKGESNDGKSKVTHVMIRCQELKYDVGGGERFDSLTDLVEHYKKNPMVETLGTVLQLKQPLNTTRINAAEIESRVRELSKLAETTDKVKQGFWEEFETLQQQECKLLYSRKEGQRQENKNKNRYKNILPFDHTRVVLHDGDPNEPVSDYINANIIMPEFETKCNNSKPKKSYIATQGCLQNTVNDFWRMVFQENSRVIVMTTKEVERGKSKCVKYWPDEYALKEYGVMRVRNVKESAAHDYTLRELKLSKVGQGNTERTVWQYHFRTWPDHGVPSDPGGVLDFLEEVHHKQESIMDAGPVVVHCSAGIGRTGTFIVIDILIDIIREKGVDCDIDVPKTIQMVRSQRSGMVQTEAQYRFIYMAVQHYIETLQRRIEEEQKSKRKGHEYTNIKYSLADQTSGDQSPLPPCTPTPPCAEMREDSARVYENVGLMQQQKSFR
Chain of Dual specificity protein phosphatase 3 (P51452 whole entry): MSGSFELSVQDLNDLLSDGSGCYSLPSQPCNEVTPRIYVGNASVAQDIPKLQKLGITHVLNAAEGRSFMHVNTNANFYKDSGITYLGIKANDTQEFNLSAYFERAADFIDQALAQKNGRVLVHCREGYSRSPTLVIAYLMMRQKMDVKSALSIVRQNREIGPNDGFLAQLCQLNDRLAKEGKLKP
Chain of Potassium voltage-gated channel subfamily KQT member 2 (O88943 whole entry): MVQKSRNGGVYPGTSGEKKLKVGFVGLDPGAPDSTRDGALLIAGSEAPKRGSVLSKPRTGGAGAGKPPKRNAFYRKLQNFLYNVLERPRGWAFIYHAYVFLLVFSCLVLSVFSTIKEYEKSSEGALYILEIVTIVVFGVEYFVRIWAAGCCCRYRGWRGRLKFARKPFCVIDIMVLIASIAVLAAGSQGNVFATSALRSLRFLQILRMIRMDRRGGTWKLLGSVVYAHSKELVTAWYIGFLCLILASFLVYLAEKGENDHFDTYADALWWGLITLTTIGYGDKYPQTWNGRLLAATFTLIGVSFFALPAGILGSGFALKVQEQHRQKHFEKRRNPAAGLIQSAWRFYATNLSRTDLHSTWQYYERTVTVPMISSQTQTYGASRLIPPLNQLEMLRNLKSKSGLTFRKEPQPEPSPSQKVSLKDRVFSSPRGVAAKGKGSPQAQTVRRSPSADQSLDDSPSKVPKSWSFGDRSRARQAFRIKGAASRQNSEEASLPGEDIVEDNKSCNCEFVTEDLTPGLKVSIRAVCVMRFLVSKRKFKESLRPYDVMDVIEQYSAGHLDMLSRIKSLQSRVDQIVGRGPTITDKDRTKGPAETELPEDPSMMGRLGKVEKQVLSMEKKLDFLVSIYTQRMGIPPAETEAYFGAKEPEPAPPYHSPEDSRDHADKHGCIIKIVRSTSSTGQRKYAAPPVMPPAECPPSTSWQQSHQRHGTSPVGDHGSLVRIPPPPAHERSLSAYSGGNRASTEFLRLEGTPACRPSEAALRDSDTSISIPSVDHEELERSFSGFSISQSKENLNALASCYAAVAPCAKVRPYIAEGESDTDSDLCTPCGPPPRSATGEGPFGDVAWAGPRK
Chain of 72 kDa type IV collagenase (P08253 whole entry): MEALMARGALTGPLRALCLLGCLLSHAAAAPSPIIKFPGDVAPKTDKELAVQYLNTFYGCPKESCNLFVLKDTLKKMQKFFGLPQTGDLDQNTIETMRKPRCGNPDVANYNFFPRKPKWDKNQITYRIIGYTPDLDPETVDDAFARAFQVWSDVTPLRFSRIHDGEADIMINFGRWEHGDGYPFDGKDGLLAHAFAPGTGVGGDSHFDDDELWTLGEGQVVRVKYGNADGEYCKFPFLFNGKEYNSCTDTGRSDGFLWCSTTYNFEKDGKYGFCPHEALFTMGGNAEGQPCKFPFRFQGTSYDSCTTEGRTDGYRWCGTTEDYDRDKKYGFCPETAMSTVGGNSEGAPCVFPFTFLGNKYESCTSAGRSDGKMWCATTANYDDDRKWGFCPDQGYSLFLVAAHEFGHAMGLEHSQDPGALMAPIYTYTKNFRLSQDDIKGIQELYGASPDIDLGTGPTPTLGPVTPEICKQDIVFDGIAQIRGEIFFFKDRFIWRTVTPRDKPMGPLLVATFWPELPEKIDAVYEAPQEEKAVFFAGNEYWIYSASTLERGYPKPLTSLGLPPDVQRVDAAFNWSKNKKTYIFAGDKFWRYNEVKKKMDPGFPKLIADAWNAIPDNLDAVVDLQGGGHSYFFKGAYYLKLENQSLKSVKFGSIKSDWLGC
Chain of 26S proteasome non-ATPase regulatory subunit 14 (O00487 whole entry): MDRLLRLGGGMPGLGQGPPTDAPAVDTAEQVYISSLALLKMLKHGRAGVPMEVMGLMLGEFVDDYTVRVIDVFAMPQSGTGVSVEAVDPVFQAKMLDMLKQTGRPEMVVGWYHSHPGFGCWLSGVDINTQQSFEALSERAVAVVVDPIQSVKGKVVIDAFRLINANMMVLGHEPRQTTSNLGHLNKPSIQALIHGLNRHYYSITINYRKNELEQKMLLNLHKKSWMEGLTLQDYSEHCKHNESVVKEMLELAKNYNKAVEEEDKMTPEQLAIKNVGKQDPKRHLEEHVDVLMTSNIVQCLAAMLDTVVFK

For `Cc1c(C)c2c(OCC(=O)N3CCC[C@H]3C(=O)O)cc3c(c2oc1=O)CCC(C)(C)O3`, the IC50 at Beta-lactamase [1], at Beta-lactamase [2] and on Beta-lactamase [3] was > 59.6 µM (inactive) in each case.
In the case of `COc1ccc(CN2C(=O)NC(=O)/C(=C\c3ccco3)C2=O)cc1`, the IC50 in [4] was 3.34 µM (active); in [5], 3.91 µM (active); in [6], 12.3 µM (active); in [7], 26.5 µM (active); in [8], 12.7 µM (active); at Prothrombin it was 54.1 µM (active). Moreover, in test [9], the AC50 was 12.8 µM (active).
Consider `COc1ccc(CCN(C)C(=O)c2cc(-c3ccccc3)nc3ccc(C)cc23)cc1OC`, for which, in [10], the IC50 was 0.478 µM (active).
With `CCOc1ccc(C(=O)Nc2cc(-c3nc4ccccc4[nH]3)ccc2Cl)cc1[N+](=O)[O-]`, the figures for the EC50 in test [11] and in [12] were 8.7 µM (active) and 8.99 µM (active), respectively. The IC50 in test [13] is 2.14 µM (active); in [14], 6.73 µM (active); in test [15], 3.11 µM (active); in test [16], 29.9 µM (inactive).
As for `Cc1nc(N)nc(N)c1-c1ccc([N+](=O)[O-])cc1`, the IC50 is 12.3 µM (active) in [17] and 11.7 µM (active) in test [18].
Regarding `O=C(c1ccoc1)N1CCN(c2cc(-c3ccccc3)nc3cc(-c4ccccc4)nn23)CC1`, the EC50 in [19] was 2.02 µM (active); in test [20], 1.79 µM (active).
